Some test systems named below: K-562 leukemia; KM12 colon; LOX IMVI melanoma; M14 melanoma; MDA-MB-435; OVCAR-5 ovarian; OVCAR-8 ovarian; SF-539 CNS; SK-MEL-28 melanoma; U251 CNS; A498 renal.
Holding throughout (assay): inhibition of tumour cell growth, NCI panel, 48 h

The structures appear in SMILES notation.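 Protocol summary: plate cells (96-well), add compound at 5 concentrations, incubate 48 h, interpolate endpoints linearly. TGI denotes the concentration required for complete inhibition of growth.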

For `O=C(O)C(Cc1ccccc1)NCc1c(O)ccc2c(-c3ccccc3)cc(=O)oc12` (centres undefined), the TGI in the assay with K-562 leukemia, in the assay on KM12 colon, in the assay with LOX IMVI melanoma, with M14 melanoma, in the assay on MDA-MB-435 and in the assay on OVCAR-5 ovarian was > 100 µM each time. Besides, the TGI in the assay with OVCAR-8 ovarian, with SF-539 CNS, with SK-MEL-28 melanoma and in the assay with U251 CNS was > 100 µM in each case.
As to `Cc1ccccc1NC(=O)CSc1nnc(-c2ccc(N=Cc3ccc(Cl)cc3)cc2)o1`, the TGI in the assay with K-562 leukemia, with KM12 colon, with LOX IMVI melanoma, in the assay on M14 melanoma, with OVCAR-8 ovarian and in the assay with SK-MEL-28 melanoma was > 100 µM in each case. The TGI in the assay with U251 CNS is > 100 µM.
In the case of `C=C(C)C1CC(=O)C(C)=C(O)C1` (centres undefined), the TGI with K-562 leukemia, in the assay with KM12 colon, in the assay on LOX IMVI melanoma, with M14 melanoma, with OVCAR-5 ovarian and with OVCAR-8 ovarian was > 100 µM throughout. The TGI in the assay on SF-539 CNS, in the assay with SK-MEL-28 melanoma and with U251 CNS was > 100 µM in each case.
Consider `Cc1nc(NC(C)(CO)CO)nc(N/N=C/c2ccc(Cl)cc2)c1C(=O)Nc1ccc(Cl)cc1`, for which the TGI in the assay on K-562 leukemia, with KM12 colon, in the assay with LOX IMVI melanoma, in the assay on M14 melanoma, with MDA-MB-435 and in the assay on OVCAR-5 ovarian was > 100 µM each time. In addition, the TGI in the assay with OVCAR-8 ovarian, in the assay with SF-539 CNS, in the assay on SK-MEL-28 melanoma and in the assay with U251 CNS was > 100 µM throughout.
As for `CCC1(O)CC(CCN(Cc2ccccc2)C(=O)OCc2ccccc2)C(OCc2ccccc2)C1O` (centres undefined), the TGI with K-562 leukemia came out at 19.5 µM; in the assay on KM12 colon it was 27.3 µM; in the assay with LOX IMVI melanoma, 86.7 µM; with M14 melanoma, 42.3 µM; in the assay with MDA-MB-435 it was 38.2 µM; in the assay on OVCAR-5 ovarian, 41.2 µM. Besides, the TGI in the assay with OVCAR-8 ovarian is 30.1 µM; with SK-MEL-28 melanoma, 36.4 µM; with U251 CNS, > 100 µM.
With `O=[N+]([O-])c1ccc(-n2nc3ccc4nonc4c3n2)cc1`, the TGI in the assay with K-562 leukemia, with KM12 colon, in the assay on LOX IMVI melanoma, with M14 melanoma, in the assay with MDA-MB-435 and in the assay on OVCAR-5 ovarian was > 100 µM in each case. The TGI with SF-539 CNS, in the assay on SK-MEL-28 melanoma and in the assay with U251 CNS was > 100 µM each time.
`COC(=O)[C@]1(c2cc3ccccc3n2S(=O)(=O)c2ccccc2)CC2CN(C(=O)OCc3ccccc3)C1C1OC(C)(C)OC21` (some centres undefined): the TGI in the assay on KM12 colon, in the assay on LOX IMVI melanoma, in the assay on M14 melanoma, in the assay on MDA-MB-435, with OVCAR-5 ovarian and with OVCAR-8 ovarian was > 100 µM throughout. In addition, the TGI with SK-MEL-28 melanoma and in the assay with U251 CNS was > 100 µM in each case.
In the case of `Cc1cc(=O)[nH]c(NNC(C#N)c2cccc([N+](=O)[O-])c2)n1` (centres undefined), the TGI in the assay on K-562 leukemia, in the assay on KM12 colon, in the assay with LOX IMVI melanoma, with M14 melanoma, in the assay with OVCAR-5 ovarian and in the assay with OVCAR-8 ovarian was > 100 µM throughout. The TGI in the assay with SF-539 CNS, in the assay on SK-MEL-28 melanoma and with U251 CNS was > 100 µM each time.
As to `CN(CCCCCl)P(=O)(OCc1ccc([N+](=O)[O-])o1)OCC1OC(n2ccc(N)nc2=O)C(O)C1O` (centres undefined), the TGI is > 100 µM in the assay on K-562 leukemia; 34.6 µM in the assay on KM12 colon; 20.5 µM in the assay on LOX IMVI melanoma; > 100 µM with M14 melanoma; 8.21 µM in the assay with MDA-MB-435; > 100 µM with OVCAR-5 ovarian. Besides, the TGI was > 100 µM with OVCAR-8 ovarian, 38.9 µM in the assay with SF-539 CNS, > 100 µM with SK-MEL-28 melanoma and 11.1 µM with U251 CNS.
As for `O=C1c2ccccc2-c2nc3ccncc3n21`, the TGI in the assay with K-562 leukemia, in the assay with KM12 colon, in the assay with OVCAR-5 ovarian, with OVCAR-8 ovarian, with SF-539 CNS and in the assay on SK-MEL-28 melanoma was > 100 µM throughout. Also, the TGI in the assay on U251 CNS was > 100 µM.
Regarding `CCOC(=O)c1c(N)sc2c1C(C(=O)OCC)CCCC2` (centres undefined), the TGI in the assay with A498 renal is 75.8 µM; in the assay with K-562 leukemia, > 100 µM; in the assay with KM12 colon, > 100 µM; in the assay on M14 melanoma it was > 100 µM; with OVCAR-5 ovarian, > 100 µM; with OVCAR-8 ovarian it was > 100 µM. In addition, the TGI in the assay on SK-MEL-28 melanoma and in the assay with U251 CNS was > 100 µM throughout.
For `C/C(=N\Nc1nc2ccccc2s1)c1ccncn1`, the TGI in the assay on A498 renal is > 100 µM; with KM12 colon it was 16.6 µM; in the assay on M14 melanoma, 14.4 µM; with MDA-MB-435 it was > 100 µM; in the assay with OVCAR-5 ovarian it was > 100 µM; in the assay with OVCAR-8 ovarian, 1.03 µM. Moreover, the TGI with SF-539 CNS was 35.9 µM; in the assay on SK-MEL-28 melanoma it was > 100 µM; in the assay on U251 CNS it was > 100 µM.
Consider `CCCCCC[C@H]([C@H](C)O)n1cnc2c(N)ncnc21`, for which the TGI in the assay with K-562 leukemia, in the assay with KM12 colon, in the assay with LOX IMVI melanoma, in the assay on M14 melanoma, in the assay on MDA-MB-435 and in the assay on OVCAR-5 ovarian was > 100 µM each time. Further, the TGI in the assay with OVCAR-8 ovarian, with SF-539 CNS, in the assay on SK-MEL-28 melanoma and with U251 CNS was > 100 µM in each case.
On to `CCOC(=O)c1cc(-c2ccc(OC)cc2)c([N+](=O)[O-])[nH]1`, for which the TGI in the assay with A498 renal, in the assay on K-562 leukemia, with KM12 colon, in the assay on M14 melanoma, with MDA-MB-435 and in the assay with OVCAR-5 ovarian was > 10 µM throughout. Moreover, the TGI in the assay on OVCAR-8 ovarian, in the assay with SF-539 CNS, in the assay on SK-MEL-28 melanoma and in the assay on U251 CNS was > 10 µM in each case.
Take `CC(=O)C(=Cc1cn(C)c(=O)n(C)c1=O)C(C)=O`: the TGI came to 290 µM in the assay with A498 renal; 465 µM in the assay with K-562 leukemia; 189 µM with KM12 colon; 171 µM in the assay on LOX IMVI melanoma; 235 µM in the assay with OVCAR-5 ovarian; 324 µM in the assay on OVCAR-8 ovarian. The TGI in the assay on SF-539 CNS was 209 µM; in the assay on SK-MEL-28 melanoma, 209 µM; in the assay with U251 CNS it was 223 µM.

For the origin of these results see PubChem BioAssay (NCI).
